In US20050124607A1, “5-Substituted quinazolinone compounds useful as alpha 1A/B adrenergic receptor antagonists” (priority 2003, published 2005) one finds melting point data, which are given here for 29 compounds.

Some results are limits rather than exact numbers.

One may read the melting point as the temperature of the solid-liquid transition. The compound `COc1cc2[nH]c(N3CCC(Cc4ccccc4)CC3)nc(=O)c2c(OC)c1OC` [Example 63, 2-(4-Benzyl-piperidin-1-yl)-5,6,7-tri-methoxy-1H-quina-zolin-4-one] returned a melting point of 212 to 215 °C. In turn, `COC[C@@H]1CCCN1CCC1CCN(c2nc(=O)c3c(OC)c(OC)c(OC)cc3[nH]2)CC1` [Example 69, 5,6,7-Trimeth-oxy-2-{4-[2-((S)-2-meth-oxymethyl-pyr-rolidin-1-yl)-ethyl]-pipe-ridin-1-yl}-1H-quina-zolin-4-one] displayed a melting point of 78.8 to 91.6 °C. For `COC[C@H]1CCCN1CCC1CCN(c2nc(=O)c3c(OC)c(OC)c(OC)cc3[nH]2)CC1` [Example 70, 5,6,7-Trimeth-oxy-2-{4-[2-((R)-2-meth-oxymethyl-pyr-rolidin-1-yl)-ethyl]-pipe-ridin-1-yl}-1H-quina-zolin-4-one], the melting point lay in the range of 65 to 79.1 °C. For the compound `COc1cc2[nH]c(N3CCC(OCc4ccccc4S(=O)(=O)N(C)C)CC3)nc(=O)c2c(OC)c1OC` [Example 77, N,N-Dimethyl-2-[1-(5,6,7-tri-methoxy-4-oxo-1,4-di-hydro-quinazolin-2-yl)-pipe-ridin-4-yloxy-methyl]-benzene-sulfonamide], the melting point was 186 to 188.2 °C.

`COc1cc2[nH]c(N3CCC(Cc4cccc(C(=O)O)c4)CC3)nc(=O)c2c(OC)c1OC` [Example 79, 3-[1-(5,6,7-Trimethoxy-4-oxo-1,4-di-hydro-quina-zolin-2-yl)-pipe-ridin-4-ylmethyl]-benzoic acid] came in with a melting point of 245 to 249 °C. Turning to `COc1cc2[nH]c(N3CCC(OCc4cccc(N(S(C)(=O)=O)S(C)(=O)=O)c4)CC3)nc(=O)c2c(OC)c1OC` [Example 80, N-Methane-sulfonyl-N-{3-[1-(5,6,7-tri-methoxy-4-oxo-1,4-di-hydro-quina-zolin-2-yl)-pipe-ridin-4-yloxy-methyl]-phenyl}-methane-sulfonamide], the melting point lay in the range of 100.7 to 160.4 °C. `COc1cc2[nH]c(N3CCC(OCc4cccc(/N=C(\C)N(C)C)c4)CC3)nc(=O)c2c(OC)c1OC` [Example 81, N,N-Dimethyl-N′-{3-[1-(5,6,7-tri-methoxy-4-oxo-1,4-di-hydro-quinazolin-2-yl)-pipe-ridin-4-yloxy-methyl]-phenyl}-acetamidine] came in with a melting point of 56 to 64.9 °C. `COc1cc2[nH]c(N3CCc4c(cccc4/N=C(\C)N(C)C)C3)nc(=O)c2c(C)c1OC` [Example 98, N′-[2-(6,7-Dimethoxy-5-meth-yl-4-oxo-1,4-di-hydro-quinazolin-2-yl)-1,2,3,4-tetra-hydro-iso-quinolin-5-yl]-N,N-di-methyl-acetamidine] registered a melting point of 270.9 to 273.5 °C.

Take `COc1cc2[nH]c(N3CCc4ccc(/N=C(\C)N(C)C)cc4C3)nc(=O)c2c(OC)c1OC` [Example 103, N,N-Dimethyl-N′-[2-(5,6,7-tri-methoxy-4-oxo-1,4-di-hydro-quinazolin-2-yl)-1,2,3,4-tetra-hydro-isoquinolin-7-yl]-acetamidine]: the melting point was 115.8 to 120.1 °C.

As for `COCCOc1c(OC)c(OC)cc2[nH]c(N3CCc4cc(OC)c(OC)cc4C3)nc(=O)c12` [Example 105, 2-(6,7-Dimethoxy-3,4-di-hydro-1H-isoquinolin-2-yl)-6,7-di-methoxy-5-(2-meth-oxy-ethoxy)-1H-quina-zolin-4-one], the melting point was 202.4 to 204.4 °C.

As for `COc1cc2c(cc1OC)CN(c1nc(=O)c3c(OCC4CC4)c(OC)c(OC)cc3[nH]1)CC2` [Example 108, 5-Cyclopropylmethoxy-2-(6,7-di-methoxy-3,4-di-hydro-1H-isoquinolin-2-yl)-6,7-di-methoxy-1H-quinazolin-4-one], the melting point was 214 to 215.8 °C. As for `COc1cc2c(cc1OC)CN(c1nc(=O)c3c(OCCO)c(OC)c(OC)cc3[nH]1)CC2` [Example 111, 2-(6,7-Dimethoxy-3,4-di-hydro-1H-isoquinolin-2-yl)-5-(2-hy-droxy-ethoxy)-6,7-di-methoxy-1H-quinazolin-4-one], the melting point is 224 to 229 °C.

The compound `COc1cc2c(cc1OC)CN(c1nc(=O)c3c(OCCOCc4ccccc4)c(OC)c(OC)cc3[nH]1)CC2` [Example 112, 5-(2-Benzyloxy-ethoxy)-2-(6,7-di-methoxy-3,4-di-hydro-1H-isoquinolin-2-yl)-6,7-di-methoxy-1H-quinazolin-4-one] displayed a melting point of 197 to 201.9 °C. `COc1cc2c(cc1OC)CN(c1nc(=O)c3c(Oc4ccccc4)c(OC)c(OC)cc3[nH]1)CC2` [Example 113, 2-(6,7-Dimethoxy-3,4-di-hydro-1H-isoquinolin-2-yl)-6,7-di-methoxy-5-phe-noxy-1H-quinazolin-4-one] gave a melting point of 238.7 to 241.9 °C. Consider `CCCC(=N)Nc1cccc2c1CCN(c1nc(=O)c3c(OC)c(OC)c(OC)cc3[nH]1)C2` [Example 115, N-[2-(5,6,7-Trimethoxy-4-oxo-1,4-di-hydro-quina-zolin-2-yl)-1,2,3,4-tetra-hydro-isoquinolin-5-yl]-butyramidine], for which the melting point lay within 192.2 to 193.5 °C. As to `COc1cc2[nH]c(N3CCc4c(cccc4NC(=N)c4ccco4)C3)nc(=O)c2c(OC)c1OC` [Example 117, N-[2-(5,6,7-Trimethoxy-4-oxo-1,4-di-hydro-quina-zolin-2-yl)-1,2,3,4-tetra-hydro-isoquinolin-5-yl]-furan-2-car-boxamidine], the melting point lay in the range of 223.9 to 225.9 °C. Take `COc1cc2c(cc1OC)CN(c1nc(=O)c3c(-c4ccc(F)cc4)c(OC)c(OC)cc3[nH]1)CC2` [Example 120, 2-(6,7-Dimethoxy-3,4-di-hydro-1H-isoquino-lin-2-yl)-5-(4-fluoro-phe-nyl)-6,7-dimethoxy-1H-quina-zolin-4-one]: the melting point lay in the range of 220 to 225 °C. On to `COc1cc2[nH]c(N3CCc4c(cccc4/N=C(\C)N(C)C)C3)nc(=O)c2c(OC)c1OC` [Example 122, N,N-Dimethyl-N′-[2-(5,6,7-tri-methoxy-4-oxo-1,4-di-hydro-quinazolin-2-yl)-1,2,3,4-tetra-hydro-iso-quinolin-5-yl]-acetamidine], for which the melting point was 223.5 to 226.6 °C.

In the case of `COc1cc2[nH]c(N3CCc4c(cccc4NC(=N)C4CCC4)C3)nc(=O)c2c(C)c1OC` [Example 123, N-[2-(6,7-Dimethoxy-5-meth-yl-4-oxo-1,4-di-hydro-quinazolin-2-yl)-1,2,3,4-tetra-hydro-isoquinolin-5-yl]-cyclo-butanecarboxamidine], the melting point is 252.1 to 256.1 °C. As for `COc1cc2[nH]c(N3CCc4c(cccc4NC(=N)c4ccco4)C3)nc(=O)c2c(C)c1OC` [Example 124, N-[2-(6,7-Dimethoxy-5-meth-yl-4-oxo-1,4-di-hydro-quinazolin-2-yl)-1,2,3,4-tetra-hydro-iso-quinolin-5-yl]-furan-2-carboxamidine], the figure is 279 to 282 °C; as for `CCCC(=N)Nc1cccc2c1CCN(c1nc(=O)c3c(C)c(OC)c(OC)cc3[nH]1)C2` [Example 125, N-[2-(6,7-Dimethoxy-5-meth-yl-4-oxo-1,4-di-hydro-quinazolin-2-yl)-1,2,3,4-tetra-hydro-isoquinolin-5-yl]-butyramidine], 254.3 to 257.1 °C. `COc1cc2[nH]c(N3CCc4ccc(/N=C(\C)N(C)C)cc4C3)nc(=O)c2c(C)c1OC` [Example 132, N′-[2-(6,7-Dimethoxy-5-meth-yl-4-oxo-1,4-di-hydro-quinazolin-2-yl)-1,2,3,4-tetra-hydro-isoquinolin-7-yl]-N,N-di-methyl-acetamidine] returned a melting point of 176 to 177.1 °C.

Regarding `COc1cc2c(cc1OC)CN(c1nc(=O)c3c(F)c(OC)c(OC)cc3[nH]1)CC2` [Example 133, 2-(6,7-Dimethoxy-3,4-di-hydro-1H-isoquino-lin-2-yl)-5-fluoro-6,7-di-methoxy-1H-quina-zolin-4-one], the melting point fell in the range of 260.8 to 269 °C.

On to `COc1cc2c(cc1OC)CN(c1nc(=O)c3c(Cl)c(OC)c(OC)cc3[nH]1)CC2` [Example 134, 5-Chloro-2-(6,7-di-methoxy-3,4-dihydro-1H-iso-quinolin-2-yl)-6,7-di-methoxy-1H-quinazolin-4-one], for which the melting point was 255.4 to 259.9 °C. For the compound `COc1cc2[nH]c(N3CCc4c(ncnc4N4CCOCC4)C3)nc(=O)c2c(C)c1OC` [Example 136, 6,7-Dimethoxy-5-meth-yl-2-(4-morpholin-4-yl-5,8-di-hydro-6H-py-rido[3,4-d]pyrimidin-7-yl)-1H-quina-zolin-4-one], the melting point was more than 300 °C. Regarding `COc1cc2[nH]c(N3CCCC3c3cccc(N4CCN=C4C)c3)nc(=O)c2c(OC)c1OC` (centres unmarked) [Example 138, 5,6,7-Trimethoxy-2-{2-[3-(2-meth-yl-4,5-di-hydro-imidazol-1-yl)-phe-nyl]-pyrrolidin-1-yl}-1H-quina-zolin-4-one], the melting point lay within 205.1 to 209.1 °C.

The compound `COc1cc2[nH]c(N3CCCC3c3cccc(NCCNC(C)=O)c3)nc(=O)c2c(OC)c1OC` (centres unmarked) [Example 139, N-(2-{3-[1-(5,6,7-Tri-methoxy-4-oxo-1,4-di-hydro-quinazolin-2-yl)-pyr-rolidin-2-yl]-phenyl-amino}-ethyl)-acetamide] gave a melting point of 188.6 to 191 °C.

The compound `COc1cc2[nH]c(N3CCC(c4cccc(/N=C(\C)N(C)C)c4)C3)nc(=O)c2c(C)c1OC` (centres unmarked) [Example 142, N′-{3-[1-(6,7-Di-methoxy-5-methyl-4-oxo-1,4-di-hydro-quina-zolin-2-yl)-pyr-rolidin-3-yl]-phenyl}-N,N-di-methyl-acetamidine] had a melting point of 152.2 to 154.4 °C. As for `COc1cc2[nH]c(N3CCc4c(cccc4/N=C(/C)N(C)C)C3)nc(=O)c2c(C)c1OC` [Example F-1, N′-[2-(6,7-Dimethoxy-5-methyl-4-oxo-1,4-dihydro-quinazolin-2-yl)-1,2,3,4-tetrahydro-isoquinolin-5-yl]-N,N-dimethyl-acetamidine], the figure is 270.9 to 273.5 °C.
